The source of these data is PubChem BioAssay AID330 (DTP/NCI, 2004).

Values joined by “and” are separate entries in the source; they are usually repeats but may differ in a detail not shown here. Equal entries are not always repeated. Toxic doses and inconclusive results are not listed.

For the test, the system named is P388 leukemia ip, CD2F1 mice, survival T/C. Nature of the test: NCI In Vivo Anticancer Drug Screen. Data for tumor model P388 Leukemia (intraperitoneal) in CD2F1 (CDF1) mice. As to conditions: endpoint: median survival time, higher = longer survival. The essentials:
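Mice carrying the transplanted tumor received test compound or vehicle. Survival was recorded in each group, and the value is the treated-group measurement divided by that of the vehicle-treated control group.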

Where [1] appears, read: dose: 50.0 mg/kg/injection, schedule: Q01DX005 (ip), vehicle: Klucel (hydroxypropylcellulose) (HPC).
Setting [2] is: dose: 100.0 mg/kg/injection, schedule: Q01DX005 (ip), vehicle: Klucel (hydroxypropylcellulose) (HPC).
The mark [3] stands for this setting: dose: 200.0 mg/kg/injection, schedule: Q01DX005 (ip), vehicle: Klucel (hydroxypropylcellulose) (HPC).
Where [4] appears, read: dose: 200.0 mg/kg/injection, schedule: Q01DX005 (ip), vehicle: saline with Tween-80.
[5] abbreviates: dose: 50.0 mg/kg/injection, schedule: Q01DX009 (ip), vehicle: Klucel (hydroxypropylcellulose) (HPC).
[6] abbreviates: dose: 100.0 mg/kg/injection, schedule: Q01DX009 (ip), vehicle: Klucel (hydroxypropylcellulose) (HPC).
The mark [7] stands for this setting: dose: 200.0 mg/kg/injection, schedule: Q01DX009 (ip), vehicle: Klucel (hydroxypropylcellulose) (HPC).

For the compound `N#Cc1ccc(-c2nn[nH]n2)cc1`, the T/C was 102 % of control under setting [1], 95 % of control under setting [2] and 96 % of control under setting [3].
On to `Nc1nc(=S)c2[nH]cnc2[nH]1`, for which the T/C by setting is: (dose: 0.25 mg/kg/injection, schedule: Q01DX009 (ip), vehicle: acid diluted with saline) 114 % of control; (dose: 0.25 mg/kg/injection, schedule: Q01DX009 (ip), vehicle: alkali diluted with saline) 120 % of control; (dose: 0.38 mg/kg/injection, schedule: Q01DX005 (ip), vehicle: alkali diluted with saline) 108 % of control; (dose: 0.5 mg/kg/injection, schedule: Q01DX009 (ip), vehicle: acid diluted with saline) 106 % of control; (dose: 0.5 mg/kg/injection, schedule: Q01DX009 (ip), vehicle: alkali diluted with saline) 119 % of control; (dose: 0.75 mg/kg/injection, schedule: Q01DX005 (ip), vehicle: alkali diluted with saline) 115 % of control. Moreover, the T/C is 112 % of control (dose: 1.0 mg/kg/injection, schedule: Q01DX009 (ip), vehicle: acid diluted with saline); 109 % of control (dose: 1.12 mg/kg/injection, schedule: Q04DX003 (ip), vehicle: acid diluted with saline); 155 % of control (dose: 1.44 mg/kg/injection, schedule: Q01DX009 (ip), vehicle: acid diluted with saline); 123 % of control (dose: 1.5 mg/kg/injection, schedule: Q01DX005 (ip), vehicle: alkali diluted with saline); 154 % of control (dose: 1.5 mg/kg/injection, schedule: Q01DX009 (ip), vehicle: acid diluted with saline); 151 % of control (dose: 1.5 mg/kg/injection, schedule: Q01DX009 (ip), vehicle: alkali diluted with saline). Besides, the T/C (dose: 2.0 mg/kg/injection, schedule: Q01DX005 (ip), vehicle: alkali diluted with saline) was 157 % of control; the T/C (dose: 2.0 mg/kg/injection, schedule: Q01DX009 (ip), vehicle: acid diluted with saline) is 106 % of control; the T/C (dose: 2.0 mg/kg/injection, schedule: Q04DX003 (ip), vehicle: alkali diluted with saline) was 119 % of control; the T/C (dose: 2.25 mg/kg/injection, schedule: Q04DX003 (ip), vehicle: acid diluted with saline) is 119 % of control; the T/C (dose: 2.4 mg/kg/injection, schedule: Q01DX009 (ip), vehicle: acid diluted with saline) is 154 % of control and 170 % of control; the T/C (dose: 2.5 mg/kg/injection, schedule: Q04DX003 (ip), vehicle: alkali diluted with saline) was 116 % of control. Moreover, the T/C (dose: 3.24 mg/kg/injection, schedule: Q04DX003 (ip), vehicle: acid diluted with saline) was 117 % of control; the T/C (dose: 4.5 mg/kg/injection, schedule: Q01DX009 (ip), vehicle: saline) is 122 % of control; the T/C (dose: 4.5 mg/kg/injection, schedule: Q04DX003 (ip), vehicle: acid diluted with saline) was 119 % of control; the T/C (dose: 5.0 mg/kg/injection, schedule: Q04DX003 (ip), vehicle: alkali diluted with saline) is 108 % of control; the T/C (dose: 6.0 mg/kg/injection, schedule: Q01DX005 (ip), vehicle: alkali diluted with saline) was 116 % of control; the T/C (dose: 6.0 mg/kg/injection, schedule: Q01DX009 (ip), vehicle: acid diluted with saline) was 105 % of control. The T/C was 113 % of control (dose: 12.0 mg/kg/injection, schedule: Q01DX005 (ip), vehicle: alkali diluted with saline) and 120 % of control (dose: 20.0 mg/kg/injection, schedule: Q04DX003 (ip), vehicle: alkali diluted with saline).
`CC(=O)OC/C=C(C)/C=C/C=C(C)/C=C/C1=C(C)CCCC1(C)C`: the T/C is 95 % of control under setting [4]; 97 % of control (dose: 400.0 mg/kg/injection, schedule: Q01DX005 (ip), vehicle: saline with Tween-80); 97 % of control (dose: 800.0 mg/kg/injection, schedule: Q01DX005 (ip), vehicle: saline with Tween-80); 101 % of control (dose: 1600.0 mg/kg/injection, schedule: Q01DX005 (ip), vehicle: saline with Tween-80).
On to `C=C1C(=O)O[C@@H]2C[C@@]3(C)CCC[C@H](C)C3=C[C@H]12` (tested in a mixture with another compound), for which the T/C by setting is: (dose: 7.5 mg/kg/injection, schedule: Q01DX005 (ip), vehicle: saline + alcohol) 93 % of control; (dose: 15.0 mg/kg/injection, schedule: Q01DX005 (ip), vehicle: saline + alcohol) 94 % of control; (dose: 30.0 mg/kg/injection, schedule: Q01DX005 (ip), vehicle: saline + alcohol) 103 % of control; (dose: 60.0 mg/kg/injection, schedule: Q01DX005 (ip), vehicle: saline + alcohol) 100 % of control; (dose: 120.0 mg/kg/injection, schedule: Q01DX005 (ip), vehicle: saline + alcohol) 104 % of control.
In the case of `CNc1ccc(Nc2cccc(C)c2)c2c1C(=O)c1ccccc1C2=O`, the T/C was 100 % of control under setting [5], 91 % of control under setting [6] and 113 % of control under setting [7].
Turning to `Cc1cc(Cc2ccc3c(c2)OCO3)ccc1OCC(=O)O`, the T/C is, setting by setting: under setting [1], 98 % of control; under setting [2], 105 % of control; under setting [3], 104 % of control.
Regarding `FC(F)(F)C1=C(C(F)(F)F)SP(Cl)(Cl)(c2ccccc2)S1`, the T/C runs as follows: (dose: 12.5 mg/kg/injection, schedule: Q04DX003 (ip), vehicle: saline with Tween-80) 105 % of control; (dose: 25.0 mg/kg/injection, schedule: Q04DX003 (ip), vehicle: saline with Tween-80) 105 % of control; (dose: 50.0 mg/kg/injection, schedule: Q04DX003 (ip), vehicle: saline with Tween-80) 105 % of control; (dose: 75.0 mg/kg/injection, schedule: Q04DX003 (ip), vehicle: saline with Tween-80) 101 % of control.
On to `NC(=O)CCCCCBr`, for which the T/C under setting [5] is 98 % of control, the T/C under setting [6] was 95 % of control and the T/C under setting [7] was 90 % of control.
Turning to `CSc1cccc(NC(=O)Oc2c(Cl)cccc2Cl)c1`, the T/C is, setting by setting: (dose: 50.0 mg/kg/injection, schedule: Q01DX009 (ip), vehicle: gum acacia) 113 % of control; (dose: 100.0 mg/kg/injection, schedule: Q01DX009 (ip), vehicle: gum acacia) 111 % of control.
With `O=[N+]([O-])c1ccc2c(c1)c(S(=O)(=O)O)cc1nonc12`, the T/C (dose: 12.5 mg/kg/injection, schedule: Q01DX005 (ip), vehicle: saline) is 98 % of control; the T/C (dose: 25.0 mg/kg/injection, schedule: Q01DX005 (ip), vehicle: saline) is 95 % of control; the T/C (dose: 50.0 mg/kg/injection, schedule: Q01DX005 (ip), vehicle: saline with Tween-80) was 95 % of control; the T/C (dose: 50.0 mg/kg/injection, schedule: Q01DX005 (ip), vehicle: saline) is 90 % of control; the T/C under setting [4] was 93 % of control.
For the compound `COC(=O)C1c2ccccc2CC(=O)N1N` (stereo unspecified), the T/C was 102 % of control (dose: 6.25 mg/kg/injection, schedule: Q01DX009 (ip), vehicle: Klucel (hydroxypropylcellulose) (HPC)); 100 % of control (dose: 12.5 mg/kg/injection, schedule: Q01DX009 (ip), vehicle: Klucel (hydroxypropylcellulose) (HPC)); 100 % of control (dose: 25.0 mg/kg/injection, schedule: Q01DX009 (ip), vehicle: Klucel (hydroxypropylcellulose) (HPC)).
Turning to `CN1CCCC(C(O)c2ccccc2)S1(=O)=O` (stereo unspecified), the T/C reads like this: (dose: 50.0 mg/kg/injection, schedule: Q01DX009 (ip), vehicle: saline with Tween-80) 96 % of control; (dose: 100.0 mg/kg/injection, schedule: Q01DX009 (ip), vehicle: saline with Tween-80) 96 % of control; (dose: 200.0 mg/kg/injection, schedule: Q01DX009 (ip), vehicle: saline with Tween-80) 101 % of control.
For `C=C1C(C)C2C(Cc3ccccc3)NC(=O)C23C(OC(C)=O)/C=C/C(C)(O)CC(C)C/C=C/C3C1O` (stereo unspecified), the T/C by setting is: (dose: 3.13 mg/kg/injection, schedule: Q01DX009 (ip), vehicle: saline with Tween-80) 121 % of control; (dose: 6.25 mg/kg/injection, schedule: Q01DX009 (ip), vehicle: saline with Tween-80) 124 % of control.
Turning to `Cn1c(Cl)c(/C=N\Nc2cccc([N+](=O)[O-])c2)c2ccccc21`, the T/C is 92 % of control (dose: 50.0 mg/kg/injection, schedule: Q01DX001 (ip), vehicle: Klucel (hydroxypropylcellulose) (HPC)); 90 % of control (dose: 100.0 mg/kg/injection, schedule: Q01DX001 (ip), vehicle: Klucel (hydroxypropylcellulose) (HPC)); 92 % of control (dose: 200.0 mg/kg/injection, schedule: Q01DX001 (ip), vehicle: Klucel (hydroxypropylcellulose) (HPC)).
For the compound `CCCCCCCCCCCCCCN1CCSCC1`, the T/C reads like this: (dose: 50.0 mg/kg/injection, schedule: Q01DX009 (ip), vehicle: saline) 101 % of control; (dose: 100.0 mg/kg/injection, schedule: Q01DX009 (ip), vehicle: saline) 99 % of control.
